From ChEMBL document CHEMBL2074429, “ATP-dependent primary active transport of cysteinyl leukotrienes across liver canalicular membrane. Role of the ATP-dependent transport system for glutathione S-conjugates” (J Biol Chem, 1990)
Blank lines part the entries; values can stand above or below the molecule they belong to.

Columns and labels:
Assay type in all cases: functional, cell membranes, Plasma membrane vesicle
[1] = biological target: T1, ATP-binding cassette sub-family C member 2 (ABCC2) (Rattus norvegicus, UniProt Q63120); test: TP_TRANSPORTER: inhibition of LTC4 uptake (LTC4: 0.01 uM, Vincristine: 100 uM) in liver plasma membrane vesicles of Wistar rat; parameters: scale not given: the % may be the effect or the level left; settings: probe LTC4 (0.01 uM), read-out: Activity
[2] = biological target: ATP-binding cassette sub-family C member 2 (Rattus norvegicus, UniProt Q63120); test: (§1) TP_TRANSPORTER: uptake in liver plasma membrane vesicles of Wistar rat
[3] = biological target: T1, ATP-binding cassette sub-family C member 2 (ABCC2); test: TP_TRANSPORTER: inhibition of LTC4 uptake (LTC4: 0.01 uM, Vinblastine: 100 uM) in liver plasma membrane vesicles of Wistar rat; parameters: scale not given: the % may be the effect or the level left; settings: probe LTC4 (0.01 uM), read-out: Activity
[4] = substrate: CCCCC/C=C\C\C=C/C=C/C=C/[C@@H](SC[C@H](NC(C)=O)C(=O)O)[C@@H](O)CCCC(=O)O; test: as §1
[5] = substrate: CCCCC/C=C\C\C=C/C=C/C=C/[C@@H](SC[C@H](N)C(=O)NCC(=O)O)[C@@H](O)CCCC(=O)O; test: as §1
[6] = substrate: CCCCC/C=C\C\C=C/C=C/C=C/[C@@H](SC[C@@H](NC(=O)CC[C@H](N)C(=O)O)C(=O)NCC(=O)O)[C@@H](O)CCCC(=O)O; test: as §1

- activity at 100 µM [1]: 42%
Molecule: CC[C@]1(O)C[C@H]2CN(CCc3c([nH]c4ccccc34)[C@@](C(=O)OC)(c3cc4c(cc3OC)N(C=O)[C@H]3[C@@](O)(C(=O)OC)[C@H](OC(C)=O)[C@]5(CC)C=CCN6CC[C@]43[C@@H]65)C2)C1 [VINCRISTINE]

- Activity [2]: substrate [+]
Molecule: CCCCC/C=C\C\C=C/C=C/C=C/[C@@H](SC[C@H](N)C(=O)O)[C@@H](O)CCCC(=O)O [LEUKOTRIEN E4]

- activity at 100 µM [3]: 29%
Molecule: CC[C@]1(O)C[C@@H]2CN(CCc3c([nH]c4ccccc34)[C@@](C(=O)OC)(c3cc4c(cc3OC)N(C)[C@H]3[C@@](O)(C(=O)OC)[C@H](OC(C)=O)[C@]5(CC)C=CCN6CC[C@]43[C@@H]65)C2)C1 [VINBLASTINE]

B1: ATP-binding cassette sub-family C member 2 (Rattus norvegicus) (protein)
chain: MDKFCNSTFWDLSLLESPEADLPLCFEQTVLVWIPLGFLWLLAPWQLYSVYRSRTKRSSITKFYLAKQVFVVFLLILAAIDLSLALTEDTGQATVPPVRYTNPILYLCTWLLVLAVQHSRQWCVRKNSWFLSLFWILSVLCGVFQFQTLIRALLKDSKSNMAYSYLFFVSYGFQIVLLILTAFSGPSDSTQTPSVTASFLSSITFSWYDRTVLKGYKHPLTLEDVWDIDEGFKTRSVTSKFEAAMTKDLQKARQAFQRRLQKSQRKPEATLHGLNKKQSQSQDVLVLEEAKKKSEKTTKDYPKSWLIKSLFKTFHVVILKSFILKLIHDLLVFLNPQLLKLLIGFVKSSNSYVWFGYICAILMFAVTLIQSFCLQSYFQHCFVLGMCVRTTVMSSIYKKALTLSNLARKQYTIGETVNLMSVDSQKLMDATNYMQLVWSSVIQITLSIFFLWRELGPSILAGVGVMVLLIPVNGVLATKIRNIQVQNMKNKDKRLKIMNEILSGIKILKYFAWEPSFQEQVQGIRKKELKNLLRFGQLQSLLIFILQITPILVSVVTFSVYVLVDSANVLNAEKAFTSITLFNILRFPLSMLPMVTSSILQASVSVDRLERYLGGDDLDTSAIRRVSNFDKAVKFSEASFTWDPDLEATIQDVNLDIKPGQLVAVVGTVGSGKSSLVSAMLGEMENVHGHITIQGSTAYVPQQSWIQNGTIKDNILFGSEYNEKKYQQVLKACALLPDLEILPGGDMAEIGEKGINLSGGQKQRVSLARAAYQDADIYILDDPLSAVDAHVGKHIFNKVVGPNGLLAGKTRIFVTHGIHFLPQVDEIVVLGKGTILEKGSYRDLLDKKGVFARNWKTFMKHSGPEGEATVNNDSEAEDDDDGLIPTMEEIPEDAASLAMRRENSLRRTLSRSSRSSSRRGKSLKNSLKIKNVNVLKEKEKEVEGQKLIKKEFVETGKVKFSIYLKYLQAVGWWSILFIILFYGLNNVAFIGSNLWLSAWTSDSDNLNGTNNSSSHRDMRIGVFGALGLAQGICLLISTLWSIYACRNASKALHGQLLTNILRAPMRFFDTTPTGRIVNRFSGDISTVDDLLPQTLRSWMMCFFGIAGTLVMICMATPVFAIIIIPLSILYISVQVFYVATSRQLRRLDSVTKSPIYSHFSETVTGLPIIRAFEHQQRFLAWNEKQIDINQKCVFSWITSNRWLAIRLELVGNLVVFCSALLLVIYRKTLTGDVVGFVLSNALNITQTLNWLVRMTSEAETNIVAVERISEYINVENEAPWVTDKRPPADWPRHGEIQFNNYQVRYRPELDLVLKGITCNIKSGEKVGVVGRTGAGKSSLTNCLFRILESAGGQIIIDGIDVASIGLHDLRERLTIIPQDPILFSGSLRMNLDPFNKYSDEEVWRALELAHLRSFVSGLQLGLLSEVTEGGDNLSIGQRQLLCLGRAVLRKSKILVLDEATAAVDLETDSLIQTTIRKEFSQCTVITIAHRLHTIMDSDKIMVLDNGKIVEYGSPEELLSNRGSFYLMAKEAGIENVNHTEL
- Km [4]: 5.2 µM
- Km [5]: 1.5 µM
- Km [6]: 0.25 µM
